Test systems include 786-0 renal; BT-549 breast; CAKI-1 renal; HCT-116 colon; HCT-15 colon; HOP-92 NSCLC; HT29 colon; LOX IMVI melanoma; MDA-MB-435; MOLT-4 leukemia; NCI-H460 lung; NCI/ADR-RES ovarian; OVCAR-4 ovarian; PC-3 prostate; SF-268 CNS; SK-MEL-28 melanoma; SK-OV-3 ovarian; SNB-19 CNS; UACC-62 melanoma; UO-31 renal.
What all share (assay): DTP human tumour cell line panel, 48 h

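The compound was tested at five concentrations on cells cultured in 96-well plates, with a 48-hour exposure period. Definition used: TGI = concentration required for complete inhibition of growth.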 Bounds are passed on as bounds.

Our source for the TGI values is PubChem BioAssay (NCI).

For orientation: TGI means the concentration at which net growth stops. The low end stands for more potent growth arrest, the high end for less potent growth arrest. For the molecule `CC(C)(C)C(=O)Nc1cccc(-c2ccc[nH]2)n1`, the total growth inhibition concentration (TGI) in the assay on 786-0 renal, in the assay with BT-549 breast, in the assay on CAKI-1 renal, in the assay on HCT-116 colon, in the assay on HCT-15 colon and in the assay with HOP-92 NSCLC was greater than 100 µM in each case. Further, the TGI in the assay on HT29 colon, in the assay on LOX IMVI melanoma, in the assay on MDA-MB-435, with MOLT-4 leukemia, with NCI-H460 lung and with NCI/ADR-RES ovarian was greater than 100 µM throughout. Moreover, the TGI in the assay on OVCAR-4 ovarian, in the assay with PC-3 prostate, in the assay on SF-268 CNS, in the assay on SK-MEL-28 melanoma, in the assay on SK-OV-3 ovarian and in the assay with SNB-19 CNS was greater than 100 µM throughout. For the same molecule, the total growth inhibition concentration (TGI) in the assay with UACC-62 melanoma and with UO-31 renal was greater than 100 µM each time.

For `COc1cc(/C=C2\N=C(c3ccccc3)N(/N=C/c3cc4cc(C)ccc4nc3Cl)C2=O)cc(OC)c1OC`, the TGI in the assay with 786-0 renal, in the assay on BT-549 breast, in the assay with CAKI-1 renal, in the assay with HCT-116 colon, with HCT-15 colon and with HOP-92 NSCLC was greater than 100 µM each time. The concentration for total growth inhibition (TGI) in the assay with HT29 colon was greater than 100 µM; with LOX IMVI melanoma, greater than 100 µM; in the assay on MDA-MB-435, 40.7 µM; in the assay on MOLT-4 leukemia, 51 µM; in the assay on NCI-H460 lung it was greater than 100 µM; in the assay with NCI/ADR-RES ovarian it was greater than 100 µM. In addition, the total growth inhibition concentration (TGI) in the assay on OVCAR-4 ovarian was greater than 100 µM; with PC-3 prostate, 54.7 µM; in the assay with SF-268 CNS, greater than 100 µM; with SK-MEL-28 melanoma, greater than 100 µM; with SK-OV-3 ovarian it was greater than 100 µM; in the assay with SNB-19 CNS, greater than 100 µM. For the same molecule, the TGI in the assay with UACC-62 melanoma and with UO-31 renal was greater than 100 µM in each case.

As to `O=C1c2cccnc2C(=O)c2c1nc1ccccc1c2-c1cncc(-c2c3c(nc4ccccc24)C(=O)c2cccnc2C3=O)c1`, the concentration for total growth inhibition (TGI) in the assay on 786-0 renal is 0.228 µM; with BT-549 breast, 1.52 µM; with CAKI-1 renal, 1.64 µM; with HCT-116 colon it was 0.352 µM; in the assay with HCT-15 colon it was 0.414 µM; with HOP-92 NSCLC it was 5.93 µM. The TGI was found to be 1.28 µM in the assay on HT29 colon; 0.449 µM in the assay with LOX IMVI melanoma; 0.9 µM in the assay on MDA-MB-435; 0.788 µM in the assay on MOLT-4 leukemia; 0.516 µM with NCI-H460 lung; 2.1 µM in the assay with NCI/ADR-RES ovarian. Besides, the TGI was determined as 1.91 µM with OVCAR-4 ovarian; 11 µM in the assay with PC-3 prostate; 1.25 µM in the assay with SF-268 CNS; 1.57 µM in the assay on SK-MEL-28 melanoma; 2.1 µM in the assay on SK-OV-3 ovarian; 1.57 µM in the assay with SNB-19 CNS. In addition, the values for the total growth inhibition concentration (TGI) in the assay with UACC-62 melanoma and in the assay with UO-31 renal were 1.09 µM and 0.946 µM, respectively.

On to `Cc1cc(NCC2CC/C(=C\C=C\c3ccccc3)C2=O)no1` (stereo not given), for which the TGI with 786-0 renal, in the assay with BT-549 breast, in the assay with CAKI-1 renal, in the assay with HCT-116 colon, with HCT-15 colon and with HOP-92 NSCLC was greater than 100 µM throughout. Further, the TGI in the assay on HT29 colon, in the assay on LOX IMVI melanoma, in the assay with MDA-MB-435, in the assay with MOLT-4 leukemia, with NCI-H460 lung and in the assay with NCI/ADR-RES ovarian was greater than 100 µM throughout. For the same molecule, the TGI in the assay on OVCAR-4 ovarian, with PC-3 prostate, in the assay with SF-268 CNS, in the assay with SK-MEL-28 melanoma, in the assay with SK-OV-3 ovarian and in the assay on SNB-19 CNS was greater than 100 µM in each case. Besides, the TGI in the assay on UACC-62 melanoma and in the assay with UO-31 renal was greater than 100 µM in each case.
